Reference: the NIST ThermoML archive (doi:10.1016/j.tca.2008.05.002)

Assay: molar heat capacity at saturation pressure
Conditions: Crystal 4, Small (less than 1 g) adiabatic calorimetry

CCCCn1cc[n+](C)c1.O=[N+]([O-])[O-] [1-butyl-3-methylimidazolium nitrate]
Conditions | molar heat capacity [J/K/mol]
117.1 K | 154.68
118.14 K | 155.53
119.11 K | 156.13
120.15 K | 157.05
121.12 K | 157.68
122.17 K | 158.58
123.13 K | 159.23
124.19 K | 160.07
125.15 K | 160.68
126.21 K | 161.54
127.17 K | 162.15
128.23 K | 163.05
129.2 K | 163.65
130.26 K | 164.54
131.23 K | 165.12
132.3 K | 166.01
133.26 K | 166.61
134.34 K | 167.5
135.3 K | 168.06
136.37 K | 168.99
137.33 K | 169.59
138.41 K | 170.52
139.37 K | 171.1
140.46 K | 172.05
141.42 K | 172.55
142.5 K | 173.51
143.46 K | 174.12
144.54 K | 175.06
145.5 K | 175.61
146.58 K | 176.59
147.55 K | 177.16
148.63 K | 178.1
149.59 K | 178.69
150.67 K | 179.61
151.64 K | 180.2
152.72 K | 181.14
153.69 K | 181.74
154.76 K | 182.69
155.74 K | 183.23
156.81 K | 184.24
157.78 K | 184.76
158.86 K | 185.75
159.83 K | 186.31
160.91 K | 187.26
161.87 K | 187.84
162.96 K | 188.75
163.91 K | 189.21
165 K | 190.24
165.95 K | 190.7
167.05 K | 191.85
168 K | 192.27
169.09 K | 193.36
170.04 K | 193.84
171.13 K | 194.94
172.08 K | 195.39
173.17 K | 196.55
174.12 K | 196.86
175.21 K | 198.14
176.16 K | 198.59
177.25 K | 199.73
178.2 K | 200.16
179.28 K | 201.42
180.24 K | 201.83
181.31 K | 203.03
182.28 K | 203.44
183.34 K | 204.64
184.31 K | 205.05
185.37 K | 206.25
186.34 K | 206.66
187.39 K | 207.86
188.36 K | 208.47
189.42 K | 209.67
190.39 K | 210.08
191.44 K | 211.28
192.41 K | 211.89
193.45 K | 212.89
194.43 K | 213.5
195.47 K | 214.71
196.44 K | 215.31
197.48 K | 216.31
198.45 K | 216.92
199.49 K | 218.13
200.46 K | 218.73
201.55 K | 219.94
202.53 K | 220.54
203.67 K | 221.75
204.65 K | 222.35
205.78 K | 223.56
206.76 K | 224.16
207.89 K | 225.37
208.87 K | 225.97
210 K | 227.38
210.98 K | 227.78
212.11 K | 229.19
213.09 K | 229.6
214.21 K | 231
215.19 K | 231.61
216.3 K | 232.82
217.29 K | 233.62
218.4 K | 234.63
219.38 K | 235.63
220.49 K | 236.44
221.47 K | 237.44
222.58 K | 238.25
